How the values were obtained:
Experiment in all cases: Post-emergence herbicidal effect, greenhouse pot test
[1] = tested on: ABUTH; format: in vivo, Abutilon theophrasti; conditions: visual rating about 3 weeks after treatment; for pest or weed control at 80 g/ha / pest or weed control at 320 g/ha: Abutilon theophrasti, 504 h, read-out: Post-emergence effect against ABUTH
How it was run: (§1)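 Sandy loam pots, greenhouse. One-leaf stage (2–3 wk after sowing) foliar spray; WP/EC in water + 0.5% additive, 600 l/ha; 20–320 g/ha. Visual score ~3 wk, 0–100% vs untreated.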

[2] = tested on: ALOMY; format: in vivo, Alopecurus myosuroides; conditions: visual rating about 3 weeks after treatment
How it was run: as §1

[3] = tested on: AMARE; format: in vivo, Amaranthus retroflexus; conditions: visual rating about 3 weeks after treatment; for pest or weed control at 320 g/ha / pest or weed control at 80 g/ha: Amaranthus retroflexus, 504 h, read-out: Post-emergence effect against AMARE
How it was run: as §1

[4] = tested on: AVEFA; format: in vivo, Avena fatua; conditions: visual rating about 3 weeks after treatment
How it was run: as §1

[5] = tested on: DIGSA; format: in vivo, Digitaria sanguinalis; conditions: visual rating about 3 weeks after treatment; for pest or weed control at 320 g/ha / pest or weed control at 80 g/ha: Digitaria sanguinalis, 504 h, read-out: Post-emergence effect against DIGSA
How it was run: as §1

[6] = tested on: ECHCG; format: in vivo, Echinochloa crus-galli; conditions: for pest or weed control at 80 g/ha / pest or weed control at 320 g/ha: read-out: Post-emergence effect against ECHCG in %
How it was run: as §1

[7] = tested on: LOLRI; format: in vivo, Lolium rigidum
How it was run: as §1

[8] = tested on: MATIN; format: in vivo, Tripleurospermum inodorum
How it was run: as §1

[9] = tested on: PHBPU; format: in vivo, Ipomoea purpurea
How it was run: as §1

[10] = tested on: POLCO; format: in vivo, Fallopia convolvulus
How it was run: as §1

[11] = tested on: SETVI; format: in vivo, Setaria viridis
How it was run: as §1

[12] = tested on: VERPE; format: in vivo, Veronica persica; conditions: for pest or weed control at 80 g/ha / pest or weed control at 320 g/ha: Veronica persica, 504 h, read-out: Post-emergence effect against VERPE in %
How it was run: as §1

[13] = tested on: VIOTR; format: in vivo, Viola tricolor; conditions: for pest or weed control at 80 g/ha / pest or weed control at 320 g/ha: Viola tricolor, 504 h, read-out: Post-emergence effect against VIOTR in %
How it was run: as §1

[14] = tested on: KCHSC; format: in vivo
How it was run: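 Visual rating of activity against untreated plants (100% = plants died, 0% = no effect), done about 3 weeks after treatment. Compounds applied at 20–320 g/ha as aqueous spray (600 l/ha, 0.5% additive) from WP or EC formulations onto one-leaf-stage plants grown in sandy loam under greenhouse conditions.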

[15] = Alopecurus myosuroides, 504 h, 320 g/ha, read-out: Post-emergence effect against ALOMY
[16] = Avena fatua, 504 h, 320 g/ha, read-out: Post-emergence effect against AVEFA
[17] = Echinochloa crus-galli, 504 h, 80 g/ha
[18] = Echinochloa crus-galli, 504 h, 320 g/ha
[19] = Lolium rigidum, 504 h, 320 g/ha, read-out: Post-emergence effect against LOLRI in %
[20] = Tripleurospermum inodorum, 504 h, 320 g/ha, read-out: Post-emergence effect against MATIN in %
[21] = Ipomoea purpurea, 504 h, 80 g/ha, read-out: Post-emergence effect against PHBPU in %
[22] = Ipomoea purpurea, 504 h, 320 g/ha, read-out: Post-emergence effect against PHBPU in %
[23] = Fallopia convolvulus, 504 h, 320 g/ha, read-out: Post-emergence effect against POLCO in %
[24] = Setaria viridis, 504 h, 80 g/ha, read-out: Post-emergence effect against SETVI in %
[25] = Setaria viridis, 504 h, 320 g/ha, read-out: Post-emergence effect against SETVI in %
[26] = 504 h, 320 g/ha, read-out: Post-emergence effect against KCHSC in %
[27] = 504 h, read-out: Post-emergence effect against KCHSC in %

Compound: CCOC(=O)C(OCC)Oc1nn(-c2ccccc2F)c(-c2ccc(F)nc2)c1Cl (stereo not drawn) [Example I-50]
- pest or weed control at 80 g/ha ([1]; 80 g/ha): 80%
- pest or weed control at 320 g/ha ([1]; 320 g/ha): 90%
- pest or weed control at 320 g/ha [2, 15]: 80%
- pest or weed control at 320 g/ha ([3]; 320 g/ha): 80%
- pest or weed control at 320 g/ha [4, 16]: 90%
- pest or weed control at 320 g/ha ([5]; 320 g/ha): 90%
- pest or weed control at 20 g/ha ([6]; Echinochloa crus-galli, 504 h, 20 g/ha, visual rating about 3 weeks after treatment, read-out: Post-emergence effect against ECHCG): 90%
- pest or weed control at 80 g/ha [6, 17]: 90%
- pest or weed control at 320 g/ha [6, 18]: 90%
- pest or weed control at 320 g/ha [7, 19]: 90%
- pest or weed control at 320 g/ha [8, 20]: 80%
- pest or weed control at 80 g/ha [9, 21]: 90%
- pest or weed control at 320 g/ha [9, 22]: 90%
- pest or weed control at 320 g/ha [10, 23]: 80%
- pest or weed control at 80 g/ha [11, 24]: 90%
- pest or weed control at 320 g/ha [11, 25]: 90%
- pest or weed control at 80 g/ha ([12]; 80 g/ha): 90%
- pest or weed control at 320 g/ha ([12]; 320 g/ha): 90%
- pest or weed control at 80 g/ha ([13]; 80 g/ha): 80%
- pest or weed control at 320 g/ha ([13]; 320 g/ha): 90%
- pest or weed control at 320 g/ha [14, 26]: 80%

Compound: COC(=O)C(OC)Oc1nn(-c2ccccc2F)c(-c2ccc(F)nc2)c1C(F)(F)F (stereo not drawn) [Example I-70]
- pest or weed control at 80 g/ha ([1]; 80 g/ha): 80%
- pest or weed control at 320 g/ha ([1]; 320 g/ha): 90%
- pest or weed control at 80 g/ha ([2]; Alopecurus myosuroides, 504 h, 80 g/ha, read-out: Post-emergence effect against ALOMY): 80%
- pest or weed control at 320 g/ha [2, 15]: 90%
- pest or weed control at 80 g/ha [3]: 80%
- pest or weed control at 320 g/ha ([3]; 320 g/ha): 80%
- pest or weed control at 80 g/ha ([4]; Avena fatua, 504 h, 80 g/ha, read-out: Post-emergence effect against AVEFA): 90%
- pest or weed control at 320 g/ha [4, 16]: 90%
- pest or weed control at 80 g/ha [5]: 80%
- pest or weed control at 320 g/ha ([5]; 320 g/ha): 90%
- pest or weed control at 80 g/ha [6, 17]: 90%
- pest or weed control at 320 g/ha [6, 18]: 90%
- pest or weed control at 320 g/ha [7, 19]: 90%
- pest or weed control at 80 g/ha ([8]; Tripleurospermum inodorum, 504 h, 80 g/ha, read-out: Post-emergence effect against MATIN in %): 80%
- pest or weed control at 320 g/ha [8, 20]: 80%
- pest or weed control at 80 g/ha [9, 21]: 90%
- pest or weed control at 320 g/ha [9, 22]: 90%
- pest or weed control at 20 g/ha ([10]; Fallopia convolvulus, 504 h, 20 g/ha, read-out: Post-emergence effect against POLCO in %): 80%
- pest or weed control at 80 g/ha ([10]; Fallopia convolvulus, 504 h, 80 g/ha, read-out: Post-emergence effect against POLCO in %): 80%
- pest or weed control at 320 g/ha [10, 23]: 80%
- pest or weed control at 80 g/ha [11, 24]: 80%
- pest or weed control at 320 g/ha [11, 25]: 80%
- pest or weed control at 80 g/ha ([12]; 80 g/ha): 90%
- pest or weed control at 320 g/ha ([12]; 320 g/ha): 90%
- pest or weed control at 80 g/ha ([13]; 80 g/ha): 90%
- pest or weed control at 320 g/ha ([13]; 320 g/ha): 90%
- pest or weed control at 20 g/ha [14, 27]: 80%
- pest or weed control at 80 g/ha ([14]; 504 h, 80 g/ha, read-out: Post-emergence effect against KCHSC in %): 90%
- pest or weed control at 320 g/ha [14, 26]: 90%

Compound: COC(Oc1nn(-c2ncccc2F)c(-c2cncc(F)c2)c1C1CC1)C(=O)O (stereo not drawn) [Example I-84]
- Post-emergence effect against ABUTH ([1]; 80 g/ha): 80%
- Post-emergence effect against ABUTH ([1]; 320 g/ha): 80%
- Post-emergence effect against ALOMY ([2]; 320 g/ha): 90%
- Post-emergence effect against AMARE ([3]; 320 g/ha): 80%
- pest or weed control at 80 g/ha [3]: 80%
- Post-emergence effect against AVEFA ([4]; 80 g/ha): 90%
- Post-emergence effect against AVEFA ([4]; 320 g/ha): 90%
- Post-emergence effect against DIGSA ([5]; 320 g/ha): 90%
- pest or weed control at 80 g/ha [5]: 80%
- Post-emergence effect against ECHCG ([6]; 20 g/ha, visual rating about 3 weeks after treatment): 90%
- Post-emergence effect against ECHCG in % ([6]; 80 g/ha): 90%
- Post-emergence effect against ECHCG in % ([6]; 320 g/ha): 90%
- Post-emergence effect against LOLRI in % ([7]; 320 g/ha): 90%
- pest or weed control at 80 g/ha ([7]; Lolium rigidum, 504 h, 80 g/ha, read-out: Post-emergence effect against LOLRI in %): 90%
- Post-emergence effect against MATIN in % ([8]; 80 g/ha): 80%
- Post-emergence effect against MATIN in % ([8]; 320 g/ha): 80%
- Post-emergence effect against PHBPU in % ([9]; 80 g/ha): 90%
- Post-emergence effect against PHBPU in % ([9]; 320 g/ha): 90%
- pest or weed control at 20 g/ha ([9]; Ipomoea purpurea, 504 h, 20 g/ha, read-out: Post-emergence effect against PHBPU in %): 80%
- Post-emergence effect against POLCO in % ([10]; 80 g/ha): 90%
- Post-emergence effect against POLCO in % ([10]; 320 g/ha): 90%
- Post-emergence effect against SETVI in % ([11]; 80 g/ha): 90%
- Post-emergence effect against SETVI in % ([11]; 320 g/ha): 90%
- pest or weed control at 20 g/ha ([11]; Setaria viridis, 504 h, 20 g/ha, read-out: Post-emergence effect against SETVI in %): 80%
- Post-emergence effect against VERPE in % ([12]; 80 g/ha): 90%
- Post-emergence effect against VERPE in % ([12]; 320 g/ha): 90%
- Post-emergence effect against VIOTR in % ([13]; 80 g/ha): 90%
- Post-emergence effect against VIOTR in % ([13]; 320 g/ha): 90%
- Post-emergence effect against KCHSC in % ([14]; 80 g/ha): 90%
- Post-emergence effect against KCHSC in % ([14]; 320 g/ha): 90%
- pest or weed control at 20 g/ha [14, 27]: 90%

Reference: patent US20240391862A1, “(1,4,5-TRISUBSTITUTED-1H-PYRAZOL-3-YL)OXY-2-ALKOXY ALKYL ACIDS AND THEIR DERIVATIVES, THEIR SALTS AND THEIR USE AS HERBICIDAL AGENTS” (Bayer AKtiengesellschaft, priority 2021, published 2024)
